Consider eleven compounds from US4305940A, “Benzamides with local anaesthetic and antiarrhythmic activity, salts, and method of preparation thereof and pharmaceutical compositions therefrom” (B.B.R. Boehringer Biochemia Robin S.p.A., priority 1979, dated 1981).

One data set can be described thus: in vivo. Conditions: rat, in vivo, ip; 5 days; hydrochloride salts; range in parentheses; read-out: DL50 i.p. An excerpt: (§1) The behavior of the animals has then been followed for a period of five days. The DL50 has been determined according to the method of I. T. Litchfield and F. Wilcoxon, (J. Pharmacol. Exper. Ther., 96, 99, 1949). The compound numbers in Table II correspond to the numbers in Table I.

Another data set has as its system Swiss rats. Nature of the data set: in vivo. To be noted: lidocaine = 1.
Source text: as §1

The test system of the next data set is corneal reflux. As to the kind of experiment: Surface anaesthesia (corneal reflux, conjunctival sac). To be noted: for Surface anaesthesia DL50/CE50: analogous to therapeutic index, DL50 i.p.; for Surface anaesthesia CE50: concentration in percent achieving 50% of total responses, pH 7 saline, hydrochloride salts; for Surface anaesthesia activity with respect to lidocaine: lidocaine = 1. As to the method: (§2) The data reported hereinbelow relate in every instance to the hydrochloride salts of the individual compounds.
The surface anaesthesia has been determined in rabbits according to the method of M. R. A. Change and H. Lobstein (J. Pharmacol. Exper. Ther., 82, 203, 1944). The compounds dissolved in physiological saline solution of pH 7 were injected into the conjunctival sac and the corneal reflux was induced with the brush of Frey six times at intervals of five minutes for a total period of 40 minutes.

Data set [1] relates to response to skin puncture. Nature of the data set: Anaesthesia by infiltration (subcutaneous, back puncture). The format is in vivo, guinea pigs. To be noted: for Infiltration anaesthesia DL50/CE50: analogous to therapeutic index, DL50 i.p.; for Infiltration anaesthesia CE50: concentration in percent achieving 50% of total responses, hydrochloride salts; for Infiltration anaesthesia DL50/CE50 relative to lidocaine / Infiltration anaesthesia activity with respect to lidocaine: lidocaine = 1. On the procedure:
The anaesthesia by infiltration has been determined in guinea pigs according to the method of E. Bulbring and I. Wajda, (Journal of Pharmacol. Exper. Ther. 85, 78, 1945). In each experiment, four doses of the substance in 0.25 cc of physiological saline solution is injected subcutaneously on the back after removal of hair. After five minutes, each animal is punctured six times at intervals of […].
The test was repeated every five minutes for a period of 30 minutes. The extent of anaesthesia by infiltration was measured quantitatively by determining the sum of the instances in which the animal remained immobile during the thirty minute period on 36 possible blinks.

Data set [2] relates to reflux of contraction of the lower limbs (lumbar plexus). Nature of the data set: Anaesthesia by conduction (lumbar plexus). To be noted: for Conduction anaesthesia DL50/t' / Conduction anaesthesia 1/t'max. (c = 1%) with respect to lidocaine: c = 1%; for Conduction anaesthesia DL50/t': DL50 i.p.; for Conduction anaesthesia 1/t'max. (c = 1%) with respect to lidocaine / Conduction anaesthesia DL50/t' relative to lidocaine: lidocaine = 1. The format is in vivo, frogs. The text has this: Anaesthesia by conduction has been determined on frogs according to the method of E. Bulbring and I. Wajda (Journal Pharmacol. Exper. Ther., 85, 78, 1945). The compounds dissolved in physiological saline solution are introduced into the cavity obtained by a transversal incision in the abdomen and separating the viscera in order to expose the lumbar plexus. The period of time necessary to eliminate the reflux of contraction of the lower limbs stimulated by immersion of both posterior legs into hydrochloric acid of increasing concentration between 0.05-0.1-0.2 N for a period not in excess of ten seconds, at intervals of one minute is determined. The extent of anaesthesia of conduction has been determined by measuring the period of time required for each compound in three different concentrations, 0.2%-0.5%-1.0% in order to abolish the reflex of contraction with the concentration of hydrochloric acid indicated hereinabove.

The test system of data set [3] is aconitine-induced ventricular arrhythmia. As to the kind of experiment: Anti-arrhythmic activity, aconitine infusion. Format: in vivo, Wistar rats. To be noted: 3 min before aconitine 10 mcg/kg/min. On the procedure: as §2
This determination has been made in Wistar rats, anaesthetized with ethylurethane, (1 g/kg i.p.), according to the method of B. Vargaftig and J. L. Coigner (European Journal Pharmacology, 6, 49, 1969). The compounds dissolved in physiological saline solution, are injected intravenously three minutes prior to the infusion of aconitine, (10 mcg/kg/min.). The extent of anti-arrhythmic activity is determined quantitatively by determining the amount of aconitine necessary to induce ventricular arrhythmia.

Structures can show the parent of a compound that is named as a salt.

Take `Cc1cccc(C)c1NC(=O)c1ccccc1CN1CCCC1` [Compound 4]: the LD50 at 120 h in “in vivo” is 55 mg/kg. The “DL50 i.p. relative to lidocaine” value in the data set with Swiss rats is reported as 0.39. Besides, in the data set with corneal reflux, the “Surface anaesthesia DL50/CE50” value was found to be 30, the “Surface anaesthesia CE50” value was 1.85% and the “Surface anaesthesia activity with respect to lidocaine” value (from here on “Surface anaesthesia activity”) is given as 1.24. In data set [1], the “Infiltration anaesthesia DL50/CE50” value is reported as 162, the “Infiltration anaesthesia CE50” value came to 0.34%, the “Infiltration anaesthesia DL50/CE50 relative to lidocaine” value is 0.86 and the “Infiltration anaesthesia activity with respect to lidocaine” value (shortened to “Infiltration anaesthesia activity”) is 2.20. In data set [2], the “Conduction anaesthesia DL50/t'” value is listed as 55, the “Conduction anaesthesia 1/t'max. (c = 1%) with respect to lidocaine” value (“Conduction anaesthesia 1/t'max. (c = 1%)” for short) turned out to be 11.1 and the “Conduction anaesthesia DL50/t' relative to lidocaine” value is recorded as 4.23.
Consider `Cc1cccc(C)c1NC(=O)c1ccc(CN2CCOCC2)cc1` [Compound 12], for which, in “in vivo”, the LD50 at 120 h was 230 mg/kg. In addition, the “DL50 i.p. relative to lidocaine” value in the data set on Swiss rats amounted to 1.62. In the data set on corneal reflux, the “Surface anaesthesia DL50/CE50” value is reported as 82, the “Surface anaesthesia CE50” value is 2.82% and the “Surface anaesthesia activity” value was 0.82. In data set [1], the “Infiltration anaesthesia DL50/CE50” value was 102, the “Infiltration anaesthesia CE50” value is on record as 2.25%, the “Infiltration anaesthesia DL50/CE50 relative to lidocaine” value turned out to be 0.54 and the “Infiltration anaesthesia activity” value is 0.33. For the same compound, in data set [2], the “Conduction anaesthesia DL50/t'” value was determined as 57, the “Conduction anaesthesia 1/t'max. (c = 1%)” value turned out to be 2.7 and the “Conduction anaesthesia DL50/t' relative to lidocaine” value amounted to 4.46.
On to `Cc1cccc(C)c1NC(=O)c1ccccc1CN1CCCCC1` [Compound 7], for which the LD50 at 120 h in “in vivo” is 87.1 mg/kg. The “DL50 i.p. relative to lidocaine” value in the data set with Swiss rats came to 0.61. For the same compound, in the data set on corneal reflux, the “Surface anaesthesia DL50/CE50” value was found to be 290, the “Surface anaesthesia CE50” value is reported as 0.30% and the “Surface anaesthesia activity” value is given as 7.66. Further, in data set [1], the “Infiltration anaesthesia DL50/CE50” value came out at 414, the “Infiltration anaesthesia CE50” value came to 0.21%, the “Infiltration anaesthesia DL50/CE50 relative to lidocaine” value worked out at 2.19 and the “Infiltration anaesthesia activity” value was 3.57. In data set [2], the “Conduction anaesthesia DL50/t'” value was 87, the “Conduction anaesthesia 1/t'max. (c = 1%)” value turned out to be 11.1 and the “Conduction anaesthesia DL50/t' relative to lidocaine” value turned out to be 6.69.
On to `Cc1cccc(C)c1NC(=O)c1ccc(CN2CCCC2)cc1` [Compound 6], for which, in “in vivo”, the LD50 at 120 h came to 215 mg/kg. In addition, the “DL50 i.p. relative to lidocaine” value with Swiss rats is listed as 1.51. Moreover, in the data set on corneal reflux, the “Surface anaesthesia DL50/CE50” value worked out at 13, the “Surface anaesthesia CE50” value is on record as 16.03% and the “Surface anaesthesia activity” value is 0.14. For the same compound, in data set [1], the “Infiltration anaesthesia DL50/CE50” value is given as 48, the “Infiltration anaesthesia CE50” value worked out at 4.50%, the “Infiltration anaesthesia DL50/CE50 relative to lidocaine” value worked out at 0.25 and the “Infiltration anaesthesia activity” value stood at 0.16. Further, in data set [2], the “Conduction anaesthesia DL50/t'” value is 107, the “Conduction anaesthesia 1/t'max. (c = 1%)” value was 5.5 and the “Conduction anaesthesia DL50/t' relative to lidocaine” value is recorded as 8.31.
For `C=C[C@H]1C[N@@]2CC[C@H]1C[C@@H]2[C@@H](O)c1ccnc2ccc(OC)cc12` [Quinidine sulfate, reference compound], the “Aconitine i.v. necessary to induce ventricular arrhythmia” value in data set [3] (10.0 mg/kg i.v.) stood at 50 ± 3 µg/kg; in data set [3] (40.0 mg/kg i.v.), 88 ± 11 µg/kg.
As to `Cc1cccc(C)c1NC(=O)c1cccc(CN2CCCCC2)c1` [Compound 8], the LD50 at 120 h in “in vivo” was found to be 205 mg/kg. For the same compound, in the data set on Swiss rats, the “DL50 i.p. relative to lidocaine” value is reported as 1.44. Further, in the data set on corneal reflux, the “Surface anaesthesia DL50/CE50” value was 73, the “Surface anaesthesia CE50” value amounted to 2.82% and the “Surface anaesthesia activity” value was found to be 0.82. In data set [1], the “Infiltration anaesthesia DL50/CE50” value is 569, the “Infiltration anaesthesia CE50” value is on record as 0.36%, the “Infiltration anaesthesia DL50/CE50 relative to lidocaine” value is recorded as 3.01 and the “Infiltration anaesthesia activity” value was 2.08. Moreover, in data set [2], the “Conduction anaesthesia DL50/t'” value is given as 41, the “Conduction anaesthesia 1/t'max. (c = 1%)” value is 2.2 and the “Conduction anaesthesia DL50/t' relative to lidocaine” value is 3.15.
On to `Cc1cccc(C)c1NC(=O)c1cccc(CN2CCOCC2)c1` [Compound 11], for which, in the data set “in vivo”, the LD50 at 120 h was found to be 260 mg/kg. Also, the “DL50 i.p. relative to lidocaine” value in the data set on Swiss rats came to 1.83. Besides, in the data set on corneal reflux, the “Surface anaesthesia DL50/CE50” value is listed as 22, the “Surface anaesthesia CE50” value amounted to 11.90% and the “Surface anaesthesia activity” value was found to be 0.19. In data set [1], the “Infiltration anaesthesia DL50/CE50” value came out at 273, the “Infiltration anaesthesia CE50” value stood at 0.95%, the “Infiltration anaesthesia DL50/CE50 relative to lidocaine” value worked out at 1.44 and the “Infiltration anaesthesia activity” value was found to be 0.79. Also, in data set [2], the “Conduction anaesthesia DL50/t'” value stood at 29, the “Conduction anaesthesia 1/t'max. (c = 1%)” value came out at 1.2 and the “Conduction anaesthesia DL50/t' relative to lidocaine” value stood at 2.15.
Consider `Cc1cccc(C)c1NC(=O)c1cccc(CN2CCCC2)c1` [Compound 5], for which the LD50 at 120 h in the data set “in vivo” is 225 mg/kg. In addition, the “DL50 i.p. relative to lidocaine” value in the data set on Swiss rats worked out at 1.58. In addition, in the data set with corneal reflux, the “Surface anaesthesia DL50/CE50” value amounted to 9, the “Surface anaesthesia CE50” value was found to be 24.12% and the “Surface anaesthesia activity” value came to 0.09. Moreover, in data set [1], the “Infiltration anaesthesia DL50/CE50” value was determined as 28, the “Infiltration anaesthesia CE50” value was 8.01%, the “Infiltration anaesthesia DL50/CE50 relative to lidocaine” value was found to be 0.15 and the “Infiltration anaesthesia activity” value is 0.09. Further, in data set [2], the “Conduction anaesthesia DL50/t'” value is 225, the “Conduction anaesthesia 1/t'max. (c = 1%)” value came out at 11.1 and the “Conduction anaesthesia DL50/t' relative to lidocaine” value is 17.31.
With `CCN(CC)CC(=O)Nc1c(C)cccc1C` [Lidocaine hydrochloride, reference compound], the figures for the “Aconitine i.v. necessary to induce ventricular arrhythmia” value in data set [3] (12.5 mg/kg i.v.) and in data set [3] (25.0 mg/kg i.v.) were 41 ± 4 µg/kg and 54 ± 5 µg/kg, respectively.
With `Cc1cccc(C)c1NC(=O)c1ccccc1CN1CCOCC1` [Compound 10], in the data set “in vivo”, the LD50 at 120 h was found to be 230 mg/kg. In addition, the “DL50 i.p. relative to lidocaine” value in the data set on Swiss rats was 1.62. Moreover, in the data set on corneal reflux, the “Surface anaesthesia DL50/CE50” value was 34, the “Surface anaesthesia CE50” value is given as 6.86% and the “Surface anaesthesia activity” value is on record as 0.34. Moreover, in data set [1], the “Infiltration anaesthesia DL50/CE50” value came out at 98, the “Infiltration anaesthesia CE50” value is 2.34%, the “Infiltration anaesthesia DL50/CE50 relative to lidocaine” value worked out at 0.52 and the “Infiltration anaesthesia activity” value is reported as 0.32. Moreover, in data set [2], the “Conduction anaesthesia DL50/t'” value came out at 21, the “Conduction anaesthesia 1/t'max. (c = 1%)” value was 1.0 and the “Conduction anaesthesia DL50/t' relative to lidocaine” value is 1.61.
Turning to `Cc1cccc(C)c1NC(=O)c1ccc(CN2CCCCC2)cc1` [Compound 9, 2,6-Dimethylanilide of 4-piperidinomethyl-benzoic acid], in the data set “in vivo”, the LD50 at 120 h was found to be 210 mg/kg. The “DL50 i.p. relative to lidocaine” value with Swiss rats was 1.48. In the data set with corneal reflux, the “Surface anaesthesia DL50/CE50” value worked out at 109, the “Surface anaesthesia CE50” value amounted to 1.92% and the “Surface anaesthesia activity” value came out at 1.20. Also, in data set [1], the “Infiltration anaesthesia DL50/CE50” value turned out to be 750, the “Infiltration anaesthesia CE50” value was 0.28%, the “Infiltration anaesthesia DL50/CE50 relative to lidocaine” value came to 3.97 and the “Infiltration anaesthesia activity” value is on record as 2.67. Moreover, in data set [2], the “Conduction anaesthesia DL50/t'” value came to 19, the “Conduction anaesthesia 1/t'max. (c = 1%)” value is on record as 1.0 and the “Conduction anaesthesia DL50/t' relative to lidocaine” value is on record as 1.46.
